Publication PMC9080521, “Molecular basis of rutin inhibition of protein disulfide isomerase (PDI) by combined in silico and experimental methods” (RSC Advances, 2018)
pIC50: −log10 of the molar value.

Columns and labels:
[1] = system: plasma thrombin generation activity; design: method as in PMID 28097231; conditions: human, oral administration (1 gram); cited from earlier work
PDI = system: PDI; design: method as in PMID 21121641; conditions: read-out: inhibits PDI at; cited from earlier work
wt MBP-PDI-b′xa′ = biological target: T1, wt MBP-PDI-b′xa′ (Homo sapiens, UniProt P07237); assay: Insulin reduction assay; assay type: biochemical; conditions: compound 100 μM, 1.5 μM protein, last read (100 min); WT alone 0.829
T1 construct: MBP-PDI-b′xa′(235–479); His-tag; made in house; host or cells: E. coli BL21 (DE3)
Method: (§1) The insulin reduction assay was performed to assess the enzymatic activity of PDI and its MBP-fused recombinant proteins. PDI can reduce insulin in the presence of dithiothreitol (DTT) along with increase in turbidity of the reaction mixture. We thus monitored spectrophotometrically the aggregation of reduced insulin through the increase of turbidity. The reductase activity was measured in 100 μL in presence of 600 μM insulin, 1.5 μM PDI and recombinant PDI proteins, 1 mM DTT, and with protein buffer (pH 7.4), at room temperature over 100 min by absorption at 650 nm. For inhibition assay, 100 μM of rutin, kaempferitrin, tiliroside and 2′-O-galloylhyperin or control buffer was added to the reaction system.
We further used the insulin reduction assay to measure the reductase activities of these site-directed MBP-PDI-b′xa′ mutants. This assay has typically good reproducibility as shown by a control experiment with three repetitions (Fig. S7 ^†). We found the PDI mutants maintained reductase activities in the presence of dithiothreitol (DTT). The H354A mutation lowered the reductase activity of wt MBP-PDI-b′xa′ (Fig. 3G) while other mutants had similar reductase activities with that of wt MBP-PDI-b′xa′ (Fig. 3C, F and H–J). Addition of rutin inhibited the reductase activities of both wt MBP-PDI-b′xa′ and the mutants (Fig. 3C and F–J). […] We quantified the inhibition of rutin on these MBP-PDI-b′xa′ mutants by measuring the increase of turbidity (OD650 at 100 min) upon addition of rutin (Fig. 3K).

full-length human PDI = full-length human PDI (Homo sapiens, UniProt P07237); assay: Insulin reduction assay; assay type: biochemical; conditions: compound 100 μM; for turbidity (OD650), raw kinetic read at 1:40:32: 1.5 μM protein, last read (100 min), PDI alone 1.125
Method: as §1

Chain of full-length human PDI (P07237 18-508): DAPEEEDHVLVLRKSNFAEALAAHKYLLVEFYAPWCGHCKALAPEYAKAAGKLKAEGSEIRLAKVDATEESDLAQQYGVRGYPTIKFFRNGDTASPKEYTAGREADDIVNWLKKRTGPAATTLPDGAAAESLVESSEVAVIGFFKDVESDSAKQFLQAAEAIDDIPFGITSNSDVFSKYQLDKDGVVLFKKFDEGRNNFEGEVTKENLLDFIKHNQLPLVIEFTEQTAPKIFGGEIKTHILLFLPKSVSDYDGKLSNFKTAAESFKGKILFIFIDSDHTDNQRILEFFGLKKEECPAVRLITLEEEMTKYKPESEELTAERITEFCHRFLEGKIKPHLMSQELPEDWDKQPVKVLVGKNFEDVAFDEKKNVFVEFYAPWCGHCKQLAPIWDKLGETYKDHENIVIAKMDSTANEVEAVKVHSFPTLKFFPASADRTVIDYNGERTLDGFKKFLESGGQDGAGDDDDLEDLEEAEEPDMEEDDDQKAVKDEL
T1 sequence (P07237 235-479): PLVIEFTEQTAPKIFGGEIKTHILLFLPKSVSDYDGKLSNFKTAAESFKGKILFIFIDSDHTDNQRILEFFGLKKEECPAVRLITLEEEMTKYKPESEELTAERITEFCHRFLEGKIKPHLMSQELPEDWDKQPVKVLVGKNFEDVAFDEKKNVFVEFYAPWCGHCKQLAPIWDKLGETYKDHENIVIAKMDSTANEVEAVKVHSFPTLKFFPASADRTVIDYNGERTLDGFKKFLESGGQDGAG

Row | Structure (SMILES) | reduction of plasma thrombin generation activity [1] | pIC50 (PDI) | turbidity (OD650), raw kinetic read at 1:40:32 (wt MBP-PDI-b′xa′) | turbidity (OD650), raw kinetic read at 1:40:32 (full-length human PDI) | inhibitory activity on reductase activity (full-length human PDI; full-length human PDI)
1 | O=c1c(O[C@@H]2O[C@H](CO)[C@@H](O)[C@H](O)[C@H]2O)c(-c2ccc(O)c(O)c2)oc2cc(O)cc(O)c12 [isoquercetin] | about half | – | – | – | –
2 | C/C1=C/[C@H](O)C(C)(C)CCC/C(C)=C/C[C@H]1OC(=O)c1ccc(O)cc1 [juniferdin] | – | 6.81 | – | – | –
3 | C[C@@H]1O[C@@H](Oc2cc(O)c3c(=O)c(O[C@@H]4O[C@@H](C)[C@H](O)[C@@H](O)[C@H]4O)c(-c4ccc(O)cc4)oc3c2)[C@H](O)[C@H](O)[C@H]1O [kaempferitrin] | – | – | 0.56 | 0.998 | smaller than that of rutin
4 | O=C(/C=C/c1ccc(O)cc1)OC[C@H]1O[C@@H](Oc2c(-c3ccc(O)cc3)oc3cc(O)cc(O)c3c2=O)[C@H](O)[C@@H](O)[C@@H]1O [tiliroside] | – | – | 0.5 | 0.925 | –
